# From BindingDB's records for doi:10.1021/acs.jnatprod.6b01127 (Beijing University of Chinese Medicine, 2017)
# pIC50: −log10 of the molar value.
# Target: Signal transducer and activator of transcription 3 (Homo sapiens, UniProt P40763)
# Assay: Inhibition of IL-6-Induced STAT3 activation (unknown origin) expressed in human HepG2 cells expressing pSTAT3-luciferase pre-incubated for 1 hr before IL-6 stimulation for 6 hrs by luciferase reporter gene assay
# Chain of Signal transducer and activator of transcription 3 (P40763 whole entry): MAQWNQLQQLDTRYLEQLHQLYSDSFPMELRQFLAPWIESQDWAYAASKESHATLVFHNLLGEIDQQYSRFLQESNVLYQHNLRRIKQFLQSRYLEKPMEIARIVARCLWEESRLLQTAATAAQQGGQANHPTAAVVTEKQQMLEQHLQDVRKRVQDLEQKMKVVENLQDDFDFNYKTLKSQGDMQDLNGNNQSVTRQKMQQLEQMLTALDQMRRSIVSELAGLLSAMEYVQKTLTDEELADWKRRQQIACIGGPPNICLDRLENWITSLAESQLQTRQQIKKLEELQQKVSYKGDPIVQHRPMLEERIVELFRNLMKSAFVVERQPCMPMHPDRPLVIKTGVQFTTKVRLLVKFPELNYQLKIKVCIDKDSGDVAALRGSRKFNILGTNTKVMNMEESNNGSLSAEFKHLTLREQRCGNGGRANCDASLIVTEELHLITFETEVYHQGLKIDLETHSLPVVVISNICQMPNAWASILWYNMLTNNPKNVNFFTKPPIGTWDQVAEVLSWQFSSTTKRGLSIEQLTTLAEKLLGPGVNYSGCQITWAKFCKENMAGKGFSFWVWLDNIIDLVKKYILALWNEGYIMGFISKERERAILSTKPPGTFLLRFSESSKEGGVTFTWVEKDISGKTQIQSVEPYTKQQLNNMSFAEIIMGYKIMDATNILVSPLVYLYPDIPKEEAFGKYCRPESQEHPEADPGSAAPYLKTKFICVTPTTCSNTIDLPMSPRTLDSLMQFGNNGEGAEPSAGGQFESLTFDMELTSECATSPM
row,SMILES,pIC50
1,CCO[C@H]1C[C@@H]2C(C(=O)OC)=CO[C@@H](O[C@@H]3O[C@H](CO[C@H]4C[C@@H]5C(C(=O)OC)=CO[C@@H](O[C@@H]6O[C@H](CO)[C@@H](O)[C@H](O)[C@H]6O)[C@@H]5[C@H](C)O4)[C@@H](O)[C@H](O)[C@H]3O)[C@@H]2[C@H](C)O1,< 4.00
2,COC(=O)C1=CO[C@@H](O[C@@H]2O[C@H](CO[C@@H]3C[C@@H]4C(C(=O)OC)=CO[C@@H](O[C@@H]5O[C@H](CO)[C@@H](O)[C@H](O)[C@H]5O)[C@@H]4[C@H](C)O3)[C@@H](O)[C@H](O)[C@H]2O)[C@@H]2[C@H](C)O[C@H](OC)C[C@H]12,4.56
3,COC(=O)C1=CO[C@@H](O[C@@H]2O[C@H](CO[C@H]3C[C@@H]4C(C(=O)OC)=CO[C@@H](O[C@@H]5O[C@H](CO)[C@@H](O)[C@H](O)[C@H]5O)[C@@H]4[C@H](C)O3)[C@@H](O)[C@H](O)[C@H]2O)[C@@H]2[C@H](C)O[C@@H](OC)C[C@H]12,< 4.00
4,COC(=O)C1=CO[C@@H](O[C@@H]2O[C@H](CO)[C@@H](O)[C@H](O)[C@H]2O)[C@@H]2[C@H](C)O[C@@H](OC)C[C@H]12,4.61
5,COC(=O)C1=CO[C@@H](O[C@@H]2O[C@H](CO)[C@@H](O)[C@H](O)[C@H]2O)[C@@H]2[C@H](C)O[C@H](OC)C[C@H]12,4.49
6,COC(=O)C1=CO[C@@H](O[C@@H]2O[C@H](CO[C@@H]3C[C@@H]4C(C(=O)OC)=CO[C@@H](O[C@@H]5O[C@H](CO)[C@@H](O)[C@H](O)[C@H]5O)[C@@H]4[C@H](C)O3)[C@@H](O)[C@H](O)[C@H]2O)[C@@H]2[C@H](C)O[C@@H](OC)C[C@H]12,4.37
7,CCO[C@H]1C[C@@H]2C(C(=O)OC)=CO[C@@H](O[C@@H]3O[C@H](CO)[C@@H](O)[C@H](O)[C@H]3O)[C@@H]2[C@H](C)O1,4.17
8,CCO[C@@H]1C[C@@H]2C(C(=O)OC)=CO[C@@H](O[C@@H]3O[C@H](CO[C@H]4C[C@@H]5C(C(=O)OC)=CO[C@@H](O[C@@H]6O[C@H](CO)[C@@H](O)[C@H](O)[C@H]6O)[C@@H]5[C@H](C)O4)[C@@H](O)[C@H](O)[C@H]3O)[C@@H]2[C@H](C)O1,< 4.00
9,CCO[C@@H]1C[C@@H]2C(C(=O)OC)=CO[C@@H](O[C@@H]3O[C@H](CO)[C@@H](O)[C@H](O)[C@H]3O)[C@@H]2[C@H](C)O1,< 4.00
10,COC(=O)C1=CO[C@@H](O[C@@H]2O[C@H](CO)[C@@H](O)[C@H](O)[C@H]2O)[C@@H]2[C@H](C)[C@@H](O)C[C@H]12 [7-Epi-Loganin],4.64
11,COC(=O)C1=CO[C@@H](O[C@@H]2O[C@H](CO)[C@@H](O)[C@H](O)[C@H]2O)[C@@H]2[C@H](C)O[C@H](O)C[C@H]12 [(7Alpha-Hydroxy)-Morroniside],5.15
12,COC(=O)C1=CO[C@@H](O[C@@H]2O[C@H](CO)[C@@H](O)[C@H](O)[C@H]2O)[C@@H]2[C@H](C)O[C@@H](O)C[C@H]12 [CHEBI:80852],5.16
13,C=C[C@H]1[C@H](O[C@@H]2O[C@H](CO)[C@@H](O)[C@H](O)[C@H]2O)OC=C2C(=O)OCC[C@H]21 [CHEBI:80907],4.05
14,COC(=O)C1=CO[C@@H](O[C@@H]2O[C@H](CO)[C@@H](O)[C@H](O)[C@H]2O)[C@@H]2[C@@H](C)[C@@H](O)C[C@H]12 [Loganin],4.85
15,O=c1c(-c2ccc(O)cc2)coc2cc(O)cc(O)c12 [Prunetol],4.61

# Now from value to compound:
row,pIC50,SMILES
1,4.71,COC(=O)C1=CO[C@@H](O[C@@H]2O[C@H](CO)[C@@H](O)[C@H](O)[C@H]2O)[C@@H]2[C@H](C)O[C@H](O[C@H]3[C@H](O[C@@H]4OC=C(C(=O)OC)[C@H]5C[C@@H](OC)O[C@@H](C)[C@@H]45)O[C@H](CO)[C@@H](O)[C@@H]3O)C[C@H]12
2,4.39,COC(=O)C1=CO[C@@H](O[C@@H]2O[C@H](CO)[C@@H](O)[C@H](O)[C@H]2O[C@@H]2C[C@@H]3C(C(=O)OC)=CO[C@@H](O[C@@H]4O[C@H](CO)[C@@H](O)[C@H](O)[C@H]4O)[C@@H]3[C@H](C)O2)[C@@H]2[C@@H](C)[C@@H](O)C[C@H]12
3,4.14,COC(=O)C1=CO[C@@H](O[C@@H]2O[C@H](CO)[C@@H](O)[C@H](O)[C@H]2O)[C@@H]2[C@@H](C)[C@@H](O[C@H]3C[C@@H]4C(C(=O)OC)=CO[C@@H](O[C@@H]5O[C@H](CO)[C@@H](O)[C@H](O)[C@H]5O)[C@@H]4[C@@H](C)O3)C[C@H]12
4,4.28,COC(=O)C1=CO[C@@H](O[C@@H]2O[C@H](CO)[C@@H](O[C@H]3C[C@@H]4C(C(=O)OC)=CO[C@@H](O[C@@H]5O[C@H](C)[C@@H](O)[C@H](O)[C@H]5O)[C@@H]4[C@H](C)O3)[C@H](O)[C@H]2O)[C@@H]2[C@@H](C)[C@@H](O)C[C@H]12
5,4.91,COC(=O)C1=CO[C@@H](O[C@@H]2O[C@H](CO[C@@H]3C[C@@H]4C(C(=O)OC)=CO[C@@H](O[C@@H]5O[C@H](CO)[C@@H](O)[C@H](O)[C@H]5O)[C@@H]4[C@H](C)O3)[C@@H](O)[C@H](O)[C@H]2O)[C@@H]2[C@@H](C)[C@@H](O)C[C@H]12
6,4.66,COC(=O)C1=CO[C@@H](O[C@@H]2O[C@H](CO)[C@@H](O)[C@H](O)[C@H]2O)[C@@H]2[C@H](C)O[C@H](O[C@H]3[C@H](O[C@@H]4OC=C(C(=O)OC)[C@H]5C[C@H](OC)O[C@@H](C)[C@@H]45)O[C@H](CO)[C@@H](O)[C@@H]3O)C[C@H]12
7,4.53,COC(=O)C1=CO[C@@H](O[C@@H]2O[C@H](C)[C@@H](O)[C@H](O)[C@H]2O)[C@@H]2[C@H](C)O[C@@H](O[C@@H]3[C@@H](O)[C@H](O[C@@H]4OC=C(C(=O)OC)[C@H]5C[C@@H](OC)O[C@@H](C)[C@@H]45)O[C@H](CO)[C@H]3O)C[C@H]12
8,4.92,COC(=O)C1=CO[C@@H](O[C@@H]2O[C@H](C)[C@@H](O)[C@H](O)[C@H]2O)[C@@H]2[C@H](C)O[C@@H](O[C@@H]3[C@@H](O)[C@H](O[C@@H]4OC=C(C(=O)OC)[C@H]5C[C@H](OC)O[C@@H](C)[C@@H]45)O[C@H](CO)[C@H]3O)C[C@H]12
9,< 4.00,COC(=O)C1=CO[C@@H](O[C@@H]2O[C@H](CO)[C@@H](O)[C@H](O)[C@H]2O)[C@@H]2[C@H](C)O[C@@H](O[C@H]3[C@H](O[C@@H]4OC=C(C(=O)OC)[C@H]5C[C@H](OC)O[C@@H](C)[C@@H]45)O[C@H](CO)[C@@H](O)[C@@H]3O)C[C@H]12
10,4.10,COC(=O)C1=CO[C@@H](O[C@@H]2O[C@H](C)[C@@H](O)[C@H](O)[C@H]2O)[C@@H]2[C@H](C)O[C@@H](O[C@H]3[C@H](O)[C@@H](O)[C@H](O[C@@H]4OC=C(C(=O)OC)[C@H]5C[C@H](OC)O[C@@H](C)[C@@H]45)O[C@@H]3CO)C[C@H]12
11,4.33,COC(=O)C1=CO[C@@H](O[C@@H]2O[C@H](CO)[C@@H](O)[C@H](O)[C@H]2O)[C@@H]2[C@H](C)O[C@@H](OC[C@H]3O[C@@H](O[C@@H]4OC=C(C(=O)OC)[C@H]5C[C@@H](OC)O[C@@H](C)[C@@H]45)[C@H](O)[C@@H](O)[C@@H]3O)C[C@H]12
